Results: patent US12496290B2, “Method and compounds for treating or preventing autoimmune disorders or immune responses modulated by the expression of IDO1” (The Trustees of Princeton University, priority 2019, dated 2025)

Tests used:
myoglobin = test: Heme protein selectivity, stopped-flow UV-vis: myoglobin; format: biochemical; conditions: pseudo-first-order conditions
Procedure: (§1) Since hydrogen sulfide and polysulfides are known to react with other heme proteins, the selectivity of 3MI for IDO1 was examined by mixing the substituted indole compounds (such as 3MI) with several other heme proteins and observing their reactions using stopped-flow UV—vis spectrometry.
(§2) The substituted indole compounds had no effect on catalase even at 250 μM, whereas the substituted indole compounds did appear to reduce myoglobin and hemoglobin, producing their oxygen-bound forms. The substituted indole compound were also able to reduce ferric cytochrome c to its distinctive ferrous form. The second-order rate constants of these reactions were determined under pseudo-first-order conditions giving 6.6×10^3, 1.6×10^4, and 2.7×10^5 M^−1 s^−1 for myoglobin, hemoglobin, and cytochrome c, respectively. […] Unlike myoglobin and hemoglobin, the oxy-form of IDO1 was not observed due to the relatively slow reduction of IDO1 by 3MI.

IDO1 = IDO1 (Homo sapiens, UniProt P14902); test: IDO1 activity assay, N-formylkynurenine absorbance at 321 nm; format: biochemical
Procedure: FIG. 6 reflects a system involving IDO1 (50 nM), 0.1 mM L-tryptophan, and 5 mM glutathione in 100 mM sodium phosphate, pH 7.0 with <1 μM 6-chloro-5-fluoro-1H-indole-3-thiol.
The activity of the compounds was determined as follows. UV—vis spectra were recorded using a Hewlett-Packer 8453 diode array spectrophotometer. Activity assays were done at room temperature using 100 mM sodium phosphate, pH 7.0, with 500 nM IDO1 (ε404 nm=172 mM^−1 cm^−1) and 50 μM L-tryptophan. These were initiated by addition of IDO1, and activity was monitored at 321 nm where product N-formylkynurenine absorbs (ε321 nm=3750 M^−1 cm^−1).
The substituted indole compound was prepared daily in a 100 mM stock solution in dimethyl sulfoxide (DMSO), and this was serially diluted to maintain a consistent final concentration of 1% (v/v) DMSO in each assay. To maintain activity, 5 mM reduced glutathione was added to some of these from a 0.5 M stock solution. The substituted indole compound was generally tested from 100 nM to 10 μM. The ability of each compound to serve as a reducing substrate for IDO1 was fit using a Michaelis—Menten equation. […] Above 5 μM 3MI, there was a steep inhibitory effect.

ferric IDO1 = ferric IDO1 (Homo sapiens, UniProt P14902); test: Stopped-flow UV-vis spectrometry of binding to ferric IDO1
Procedure: FIG. 3 is a graph showing the second-order rate constant of 3MI binding to ferric IDO1 determined by stopped-flow spectrometry.
FIG. 4 is a graph showing stopped-flow UV—vis spectrometry of 3MI (30 μM) binding to IDO1 (1.4 μM) over 0.2 s.
3-Mercaptoindole (3MI) was seen to bind to IDO1 with a fast on-rate of 1.7×10^6 M^−1 s^−1 under pseudo-first-order conditions (See FIG. 3), producing a UV—vis spectrum (see FIG. 4) that has a Soret at 424 nm, a lower peak at 321 nm, and broad q-bands at 537 nm and a shoulder at about 575 nm. […] Note that although 3MI is referred to here, similar results can be seen with other substituted indole compounds disclosed herein.
Using 3MI, there was an initial burst of IDO1 activity, which leveled off after 500 s, well before substrate tryptophan was consumed (FIG. 2, 202). Reduced glutathione was added to the activity assay solutions at nearly cellular concentrations (5 mM) to reduce any oxidized 3MI-disulfide products that may have formed, and this allowed for sustained 3MI-induced IDO1 activity (FIG. 2, 201).

ferric cytochrome c = test: Heme protein selectivity, stopped-flow UV-vis: cytochrome c; format: biochemical; conditions: pseudo-first-order conditions
Procedure: as §1, §2

hemoglobin = test: Heme protein selectivity, stopped-flow UV-vis: hemoglobin; format: biochemical; conditions: pseudo-first-order conditions
Procedure: as §1, §2

ferric-superoxo IDO1 = ferric-superoxo IDO1 (Homo sapiens, UniProt P14902); test: Double-mixing stopped-flow spectrometry with ferric-superoxo IDO1; format: biochemical; conditions: lowest 3MI concentration useful for pseudo-first-order conditions; nearly within instrument mixing time
Procedure: The nature of substituted indole compound-inhibition at high concentrations (>5 μM) was examined further with ferric-superoxo IDO1, the active tryptophan-oxidizing species. Ferric-superoxo IDO1 was generated using double-mixing stopped-flow spectrometry by mixing IDO1 prereduced with 2 mM sodium dithionite into aerobic buffer for 0.5 s. This ferric superoxo species was then mixed in the second push with 3MI that had been maintained in the reduced state using 5 mM glutathione. 3MI readily reacted with ferric-superoxo IDO1 to form ferric IDO1 without any observable intermediates. This was shown by a fast shift from the ferric-superoxo complex (λmax 415 nm) to the ferric (λmax 404 nm) that was completed nearly within the mixing time of the instrument (<10 ms) even at the lowest concentration of 3MI useful for pseudo-first-order reaction conditions (where 3MI must be at a large excess over IDO1). Following this fast conversion to ferric IDO1, there was a slower shift to the ferric 3MI-bound complex as indicated by the Soret shifting to 424 nm (as in FIG. 4). To account for both reactions, these traces were fit using a double exponential expression.

Chain of IDO1 (P14902 whole entry): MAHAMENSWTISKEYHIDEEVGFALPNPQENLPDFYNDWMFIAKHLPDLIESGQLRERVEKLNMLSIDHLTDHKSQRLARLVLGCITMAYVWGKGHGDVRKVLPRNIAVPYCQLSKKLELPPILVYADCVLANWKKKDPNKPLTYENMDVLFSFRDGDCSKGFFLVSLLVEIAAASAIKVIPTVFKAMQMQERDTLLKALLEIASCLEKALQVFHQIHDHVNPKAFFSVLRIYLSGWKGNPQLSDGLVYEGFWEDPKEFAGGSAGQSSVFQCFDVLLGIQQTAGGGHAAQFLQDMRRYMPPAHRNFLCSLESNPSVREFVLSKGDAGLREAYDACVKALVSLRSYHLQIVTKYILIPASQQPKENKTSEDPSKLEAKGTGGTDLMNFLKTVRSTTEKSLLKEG
Chain of ferric IDO1 (P14902 whole entry): as above
Chain of ferric-superoxo IDO1 (P14902 whole entry): as above

| concentration above which there was a steep inhibitory effect on IDO1 activity (IDO1) | 3MI-induced IDO1 activity with glutathione (IDO1; 5 mM reduced glutathione added (FIG. 2, 201)) | time after which the initial burst of IDO1 activity leveled off (IDO1; 3MI without glutathione (FIG. 2, 202), before tryptophan was consumed) [s] | Ki (IDO1; single exponential fit of the inhibitory region at higher concentrations, read-out: Ki app (apparent Ki at half-activity)) [µM] | selectivity: IDO1 binding rate constant exceeding that of the cytochrome c reduction (ferric IDO1; IDO1 versus cytochrome c) | kon (ferric IDO1; pseudo-first-order conditions, stopped-flow, ferric IDO1, read-out: on-rate / second-order rate constant of binding to IDO1) [M⁻¹ s⁻¹] | time to complete the shift from ferric-superoxo complex to ferric IDO1 (ferric-superoxo IDO1) [ms] | IDO1 activity, product N-formylkynurenine absorbance at 321 nm over time (FIG. 6) (IDO1; IDO1 50 nM, 0.1 mM L-tryptophan, 5 mM glutathione, 100 mM sodium phosphate pH 7.0, <1 μM compound, background subtracted) | SMILES | second-order rate constant of reaction (reduction) with myoglobin (myoglobin) [M⁻¹ s⁻¹] | activation of IDO1 (IDO1; FIG. 2) | second-order rate constant of reaction (reduction) with cytochrome c (ferric cytochrome c) [M⁻¹ s⁻¹] | second-order rate constant of reaction (reduction) with hemoglobin (hemoglobin) [M⁻¹ s⁻¹] |
| --- | --- | --- | --- | --- | --- | --- | --- | --- | --- | --- | --- | --- |
| Above 5 μM | sustained | 500 | 8 ± 3 | an order of magnitude | 1.7e+06 | < 10 |  | Sc1c[nH]c2ccccc12 [3MI, 3-Mercaptoindole] | 6600 | inducing turnover even at nM concentrations | 270000 | 16000 |
|  |  |  |  |  |  |  | increase in absorbance | Fc1cc2c(S)c[nH]c2cc1Cl [6-chloro-5-fluoro-1H-indole-3-thiol] |  |  |  |  |
